Data set [1] addresses T1, recombinant human pancreatic GLK (Homo sapiens, UniProt P35557).
T1 construct: 6-His (N); made in house; host or cells: E. coli BL21
T1 sequence (P35557 1-465): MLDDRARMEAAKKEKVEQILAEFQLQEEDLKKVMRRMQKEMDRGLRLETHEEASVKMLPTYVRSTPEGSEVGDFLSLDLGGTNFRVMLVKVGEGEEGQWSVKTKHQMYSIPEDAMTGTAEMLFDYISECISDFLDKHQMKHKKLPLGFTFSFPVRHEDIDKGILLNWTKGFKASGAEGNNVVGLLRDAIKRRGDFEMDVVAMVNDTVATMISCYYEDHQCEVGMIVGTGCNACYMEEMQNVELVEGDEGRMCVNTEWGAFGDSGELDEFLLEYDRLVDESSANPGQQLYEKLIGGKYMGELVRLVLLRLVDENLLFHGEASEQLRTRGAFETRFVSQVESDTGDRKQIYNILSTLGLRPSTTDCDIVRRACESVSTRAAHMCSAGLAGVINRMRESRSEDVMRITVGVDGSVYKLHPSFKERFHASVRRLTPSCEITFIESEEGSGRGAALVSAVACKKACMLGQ
Nature of the data set: Enzymatic activity: activation of glucokinase in the absence of GLKRP. Type of data set: biochemical. Conditions: G-6-P dehydrogenase NADP/NADPH coupled assay, OD 340 nm. The procedure:
Enzymatic activity of recombinant human pancreatic GLK may be measured by incubating GLK, ATP and glucose. The rate of product formation may be determined by coupling the assay to a G-6-P dehydrogenase, NADP/NADPH system and measuring the linear increase with time of optical density at 340 nm Brocklehurst et al (Diabetes 2004, 53, 535-541). Activation of GLK by compounds can be assessed using this assay in the presence or absence of GLKRP as described in Brocklehurst et al (Diabetes 2004, 53, 535-541).
Human GLK and GLKRP cDNA was obtained by PCR from human pancreatic and hepatic mRNA respectively, using established techniques described in Sambrook J, Fritsch E F & Maniatis T, 1989. PCR primers were designed according to the GLK and GLKRP cDNA sequences shown in Tanizawa et al., Proc Natl Acad Sci 1991 August 15; 88(16):7294-7 and Warner et al., Mamm Genome. 1995 August; 6(8):532-6.
GLK was expressed from the vector pTB375NBSE in E. coli BL21 cells, producing a recombinant protein containing a 6-His tag immediately adjacent to the N-terminal methionine. Alternatively, another suitable vector is pET21(+)DNA, Novagen, Cat number 697703. The 6-His tag was used to allow purification of the recombinant protein on a column packed with nickel-nitrilotriacetic acid agarose purchased from Qiagen (cat no 30250).

This passage reports EC50 and melting point results from US7964725B2, “Heteroarylbenzamide derivatives for use in the treatment of diabetes” (AstraZeneca AB, priority 2006, dated 2011).

Each structure is given as a SMILES string.

Turning to `Cc1cnc(NC(=O)c2cc(Oc3ccc(S(C)(=O)=O)nc3)cc(O[C@@H](C)COC(F)F)c2)cn1` [Example 1, 3-[(2S)-1-(difluoromethoxy)propan-2-yl]oxy-N-(5-methylpyrazin-2-yl)-5-(6-methylsulfonylpyridin-3-yl)oxy-benzamide], the EC50 (commonly the midpoint of the concentration-response curve) in data set [1] amounted to 69 nM.
`Cc1cnc(NC(=O)c2cc(Oc3cnc(C(=O)N(C)C)cn3)cc(O[C@@H](C)COC(F)F)c2)cn1` [Example 2, 5-[3-[(2S)-1-(difluoromethoxy)propan-2-yl]oxy-5-[(5-methylpyrazin-2-yl)carbamoyl]phenoxy]-N,N-dimethyl-pyrazine-2-carboxamide]: the melting point was ~ 75 °C. For the same molecule, the EC50 in data set [1] was found to be 55 nM.
`C[C@@H](COC(F)F)Oc1cc(Oc2cnc(C(=O)N(C)C)cn2)cc(C(=O)Nc2cc[nH]n2)c1` [Example 3, 5-[3-[(2S)-1-(Difluoromethoxy)propan-2-yl]oxy-5-(1H-pyrazol-3-ylcarbamoyl)phenoxy]-N,N-dimethyl-pyrazine-2-carboxamide]: in data set [1], the half-maximal effective concentration (EC50) turned out to be 65 nM.
Same read-out and setting: the figure for `C[C@@H](COC(F)F)Oc1cc(Oc2ccc(S(C)(=O)=O)nc2)cc(C(=O)Nc2cc[nH]n2)c1` [Example 4, 3-[(2S)-1-(difluoromethoxy)propan-2-yl]oxy-5-(6-methylsulfonylpyridin-3-yl)oxy-N-(1H-pyrazol-3-yl)benzamide] is 33 nM; for `C[C@@H](COC(F)F)Oc1cc(Oc2cnc(C(=O)N(C)C)cn2)cc(C(=O)Nc2ccn(C)n2)c1` [Example 5, 5-[3-[(2S)-1-(difluoromethoxy)propan-2-yl]oxy-5-[(1-methylpyrazol-3-yl)carbamoyl]phenoxy]-N,N-dimethyl-pyrazine-2-carboxamide] it is 79 nM; for `C[C@@H](COC(F)F)Oc1cc(Oc2ccc(S(C)(=O)=O)nc2)cc(C(=O)Nc2ccn(C)n2)c1` [Example 6, 3-[(2S)-1-(difluoromethoxy)propan-2-yl]oxy-N-(1-methylpyrazol-3-yl)-5-(6-methylsulfonylpyridin-3-yl)oxy-benzamide] it is 77 nM.
